Laboratory results reported in patent publication US20150004175A1, “Compositions and Methods for Reducing CTL Exhaustion” (priority 2011, published 2015).

How the values were obtained:
LCMV-CL13 [1] = tested on: LCMV-CL13; design: species or system mice (C57BL/6); details: mouse, in vivo
LCMV-CL13 [2] = tested on: LCMV-CL13; design: species or system mice (C57BL/6); details: mouse, in vivo; remark: listed apart in the source
P14+ CD8 T cells = type: cell-based, mice

CC(C)Oc1ccc2c(=O)c3cc(C(=O)O)ccc3oc2c1 [AH6809]
number of virus-specific CD8+ T cells (LCMV-CL13 [1]): increased | INFγ, TNFα, and IL-2 production by CD8+ T cells stimulated with LCMV peptides GP276, GP33 and NP396 (LCMV-CL13 [2]): increased

CCc1nc2c(C)nc(C)cc2n1-c1ccc(CCNC(=O)NS(=O)(=O)c2ccc(C)cc2)cc1 [CJ-23423]
number of virus-specific CD8+ T cells (LCMV-CL13 [1]): increased | INFγ, TNFα, and IL-2 production by CD8+ T cells stimulated with LCMV peptides GP276, GP33 and NP396 (LCMV-CL13 [2]): increased

CCCCc1nn(-c2ccccc2C(F)(F)F)c(=O)n1Cc1ccc(-c2ccccc2S(=O)(=O)NC(=O)c2sccc2C)cc1 [L161,982]
number of virus-specific CD8+ T cells (LCMV-CL13 [1]): increased | INFγ, TNFα, and IL-2 production by CD8+ T cells stimulated with LCMV peptides GP276, GP33 and NP396 (LCMV-CL13 [2]): increased

COc1ccc2cc(OCC3(C(=O)O)CN(C(=O)c4ccc(F)cc4)C3)ccc2c1 [PF-04418948]
number of virus-specific CD8+ T cells (LCMV-CL13 [1]): increased | INFγ, TNFα, and IL-2 production by CD8+ T cells stimulated with LCMV peptides GP276, GP33 and NP396 (LCMV-CL13 [2]): increased

CCCCC[C@H](O)/C=C/[C@H]1[C@H](O)CC(=O)[C@@H]1C/C=C\CCCC(=O)O [PGE2]
inhibition of TNF-α and IL-2 production (P14+ CD8 T cells): 75-80% | production of IFN-γ, TNF-α and IL-2 (all three cytokines) (P14+ CD8 T cells): suppressed | effect on cytokine production (P14+ CD8 T cells; EP2/4 DKO P14+ CD8 T cells, 40 μM PGE2): very little effect
